The results in this text go back to patent US5278142A, “Systemic delivery of polypeptides through the eye” (Orbon Corporation, priority 1992, dated 1994).

In data set [1] the test system is blood glucose. Nature of the data set: Effects of absorption enhancers plus insulin on blood glucose concentrations. It counts as in vivo, New Zealand white rabbits. The settings on record: for % Change in Blood Glucose Concentration / Blood Glucose Concentration After / Blood Glucose Concentration Before: eye drops 1% insulin plus 1% absorption enhancer (Control: 1% insulin only).

Data set [2] in a line: Effects of absorption enhancers on the penetration of insulin into eyeballs. It counts as in vivo, New Zealand white rabbits. The settings on record: 1% insulin plus enhancer.
Data set [3] can be described thus: Effects of absorption enhancers on insulin penetration (blood insulin concentration).
A short description of data set [4]: Blood concentration of TRH, LHRH and glucagon after ocular instillation or i.v. injection (Example 5). The text has this: The concentrations of peptides in the blood were expressed in ng/ml.
Data set [5] can be described thus: Blood enkephalin-equivalent concentration after ocular instillation or i.v. injection. The settings on record: enkephalin 50 ug i.v.
The nature of data set [6]: Amount of enkephalin-equivalent remaining in eye tissues at the end of 12 hr experiment.
The mark [7] stands for this setting: 1% enhancer with 1% insulin eye drops.

Where “and” joins values, the source holds several entries; their conditions need not be identical. Identical values can stand only once.

“polyoxyethylene sorbitan monolaurate [Tween 20]”: in data set [1] (setting [7]), the “effect on blood glucose” value was “a minute reduction in blood glucose concentration”. In data set [1], the “% Change in Blood Glucose Concentration” value is on record as 14%, the “Blood Glucose Concentration After” value came to 77 ± 9 mg % and the “Blood Glucose Concentration Before” value is recorded as 90 ± 3 mg %. Besides, in data set [2], the “% of insulin taken up by the eyeball” value is recorded as 0.0771% and the “Absolute amount of insulin in the eyeball” value (from here on “Absolute amount of insulin”) was determined as 192 ng. Also, the “effect on insulin absorption” value in data set [3] (setting [7]) is recorded as “only a slight increase in insulin absorption”. For the same compound, in data set [3] (eye drops 1% insulin plus 1% absorption enhancer (Control: 1% insulin only), 25 ul), the “Insulin peak Concentration” value was found to be 8.8 ± 0.9 ng/mL.

Take `NC(=O)[C@@H]1CCCN1C(=O)[C@H](Cc1cnc[nH]1)NC(=O)[C@@H]1CCC(=O)N1` [TRH, Thyrotrophin-releasing hormone]: the “plateau blood TRH concentration” value in data set [4] (female, New Zealand white, rabbit, in vivo, topical or ocular, 1 % solution (25 ul)) was 26 ng/mL. In data set [4] (rabbit, in vivo), the “eye-drop concentration giving a therapeutic blood concentration of TRH” value is given as ≥ 0.0025%, the “time remained at the plateau” value is “approximately 10 hrs” and the time to peak is given as 60 min.

On to polyoxyethylene-9-lauryl ether [BL-9], for which, in data set [1], the “% Change in Blood Glucose Concentration” value was determined as 42%; the “Blood Glucose Concentration After” value is 56 mg % and 56 ± 3 mg %; the “Blood Glucose Concentration Before” value is 97 mg % and 97 ± 2 mg %. Also, in data set [2], the “% of insulin taken up by the eyeball” value was determined as 0.5221% and the “Absolute amount of insulin” value is given as 1305 ng.

For `CC(C)C[C@H](NC(=O)[C@H](Cc1ccccc1)NC(=O)CNC(=O)CNC(=O)[C@@H](N)Cc1ccc(O)cc1)C(=O)O` [enkephalin, Leucine-enkephalin (5-L-leucine)], the “Tx of blood concentration decline” value in data set [5] is given as “less than 30 min”. Further, the “lowest point of blood concentration” value in data set [5] (in 5 hrs) was 22 ng/mL. Further, the “Residual enkephalin remaining in tissues: % of instilled” value was found to be 0.0110 ± 0.008% in data set [6] (Choroid, 5% enkephalin); 0.0156 ± 0.003% in data set [6] (Ciliary-Body, 0.1245% enkephalin); 0.0108 ± 0.005% in data set [6] (Ciliary-Body, 1% enkephalin); 0.0042 ± 0.002% in data set [6] (Ciliary-Body, 5% enkephalin); 0.0601 ± 0.015% in data set [6] (Cornea, 1% enkephalin); 0.0427 ± 0.012% in data set [6] (Cornea, 5% enkephalin). The “Residual enkephalin remaining in tissues: % of instilled” value in data set [6] (Iris, 0.1245% enkephalin) is reported as 0.0252 ± 0.003%; in data set [6] (Iris, 1% enkephalin), 0.0117 ± 0.005%; in data set [6] (Lens, 0.1245% enkephalin) it was 0.0834 ± 0.013%; in data set [6] (Retina, 0.1245% enkephalin), 0.0118 ± 0.004%; in data set [6] (Retina, 5% enkephalin), 0.0036 ± 0.002%; in data set [6] (Total, 0.1245% enkephalin), 0.3019%. The “Residual enkephalin remaining in tissues: % of instilled” value in data set [6] (Total, 1% enkephalin) is 0.1713%; in data set [6] (Total, 5% enkephalin), 0.1136%.

Take `O=C(O)CNC(=O)C(CS)Cc1ccccc1` (racemic) [D,L-Thiorphan, D,L-thiorphan]: the “effect of added peptidase inhibitors on systemic absorption of TRH” value in data set [4] (Leu-Leu 4 mM, Bestatin 60 uM, D,L-Thiorphan 0.6 uM) was “did not significantly enhance the systemic absorption of TRH”.

On to `CC(=O)O[C@H]1C[C@@]2(C)[C@@H](C[C@@H](O)[C@H]3[C@@]4(C)CC[C@@H](O)[C@@H](C)[C@@H]4CC[C@@]32C)/C1=C(\CCC=C(C)C)C(=O)O` [Fusidic acid, sodium fusidate], for which, in data set [1], the “% Change in Blood Glucose Concentration” value is on record as 43%; the “Blood Glucose Concentration After” value is 51 mg % and 51 ± 2 mg %; the “Blood Glucose Concentration Before” value is 90 mg % and 90 ± 3 mg %.

Consider `C[N+](C)(C)CCCCCCCCCC[N+](C)(C)C` [Decamethonium, decamethonium bromide], for which, in data set [1], the “% Change in Blood Glucose Concentration” value stood at 8%, the “Blood Glucose Concentration After” value is on record as 83 ± 2 mg % and the “Blood Glucose Concentration Before” value is on record as 90 ± 3 mg %.

Take `C[C@H](CCC(=O)NCC(=O)O)[C@H]1CC[C@H]2[C@@H]3[C@H](O)C[C@@H]4C[C@H](O)CC[C@]4(C)[C@H]3C[C@H](O)[C@]12C` [Glycocholate, sodium glycocholate]: in data set [1], the “% Change in Blood Glucose Concentration” value was 13%; the “Blood Glucose Concentration After” value was 94 mg % and 94 ± 4 mg %; the “Blood Glucose Concentration Before” value is 108 mg % and 108 ± 7 mg %. Also, in data set [2], the “% of insulin taken up by the eyeball” value was 0.0804% and the “Absolute amount of insulin” value was 200 ng.

`CC(C)C[C@H](NC(=O)CNC(=O)[C@H](Cc1ccc(O)cc1)NC(=O)[C@H](CO)NC(=O)[C@H](Cc1c[nH]c2ccccc12)NC(=O)[C@H](Cc1cnc[nH]1)NC(=O)[C@@H]1CCC(=O)N1)C(=O)N[C@@H](CCCNC(=N)N)C(=O)N1CCC[C@H]1C(=O)NCC(N)=O` [LHRH, luteinizing hormone-releasing hormone]: the “eye-drop concentration sufficient to reach therapeutic effective blood concentration” value in data set [4] (rabbit, in vivo) is on record as 0.005%.
